# Assay results published in US11491150B2, “Organic compounds” (INTRA-CELLULAR THERAPIES, INC., priority 2017, dated 2022).
# Like-named read-outs stand apart in the source and are kept apart here.
# Legend:
# [1] = test system: muscle-type nAChRs; assay: Binding at 10 μM to muscle-type nAChRs (selectivity test)
# Protocol: (§1) The selectivity of these compounds is measured on the neuronal α4β2 and the muscle-type nAChRs using methods known in the art.
# [2] = target: neuronal α4β2 nAChR (Homo sapiens, UniProt P17787+P43681); assay: Binding at 10 μM to neuronal α4β2 nAChR (selectivity test)
# Protocol: as §1
# [3] = target: α7 nAChR (Homo sapiens, UniProt P36544); assay: Binding at 10 μM to α7 nAChR (selectivity test)
# [4] = Pharmacokinetic study, brain penetrability after oral administration; type: in vivo; settings: mouse, male C57B1/6 mice, oral 10 mg/kg, t=2 h
# Protocol: The pharmacokinetic (PK) study of compounds are performed in male C57B1/6 mice (n=3 per time point) after an oral administration at 10 mg/kg to evaluate the brain penetrability. The concentrations of representative Compound 16 in brain and plasma are 0.15 μM and 0.2 μM at time t=2 h, respectively. The tmax of Compound Q is probably longer than 2 h.
# [5] = test system: mouse model of diabetes; assay: Nephropathy in streptozotocin mouse model of diabetes (eNOS-/- mice), α7-nAchR blocker; type: in vivo; settings: blocker 2 mg/kg i.p. 5 days a week, 10 weeks; for Systolic BP: tail-cuff
# Protocol: Normal mice express the α7-nAChR in both the proximal and distal tubule of the kidneys. Tests were conducted to determine the role of the α7-nAchR on the severity of nephropathy in a mouse model of diabetes. Diabetes mellitus (DM) was induced in all mice with streptozotocin (STZ). This test closely mimics diabetic […] in humans. Mice were either given nicotine (DN) in doses of […] in drinking water or tap water with no nicotine for a period of 10 weeks (DT). Targeted disruption of the endothelial nitric oxide synthase gene led to eNOS^-/- knockout in a group of mice to increase susceptibility of STZ in the mice. One group of eNOS^-/- knockout mice was also subjected to targeted disruption of the α7-nAchR gene, which led to eNOS^-/-/α7-nAchR^-/- double knockout mice (DN^-/- and DT^-/-). A separate group of eNOS^-/- mice also received a α7-nAchR blocker (DN+B and DT+B). The blocker used was Compound 17 at a dosage of 2 mg/kg given intraperitoneally for 5 days a week for a period of 10 weeks. Blood pressure was measured by tail-cuff method and urine was collected every 2 weeks for albuminuria.
# All mice became diabetic after being administered STZ, and all mice were also hypertensive.
# [6] = DN + B: diabetic eNOS-/- mice on nicotine
# [7] = DT + B: diabetic eNOS-/- mice on tap water
# neuronal α4β2 nAChR, sequence (P43681 29-627 limits assumed): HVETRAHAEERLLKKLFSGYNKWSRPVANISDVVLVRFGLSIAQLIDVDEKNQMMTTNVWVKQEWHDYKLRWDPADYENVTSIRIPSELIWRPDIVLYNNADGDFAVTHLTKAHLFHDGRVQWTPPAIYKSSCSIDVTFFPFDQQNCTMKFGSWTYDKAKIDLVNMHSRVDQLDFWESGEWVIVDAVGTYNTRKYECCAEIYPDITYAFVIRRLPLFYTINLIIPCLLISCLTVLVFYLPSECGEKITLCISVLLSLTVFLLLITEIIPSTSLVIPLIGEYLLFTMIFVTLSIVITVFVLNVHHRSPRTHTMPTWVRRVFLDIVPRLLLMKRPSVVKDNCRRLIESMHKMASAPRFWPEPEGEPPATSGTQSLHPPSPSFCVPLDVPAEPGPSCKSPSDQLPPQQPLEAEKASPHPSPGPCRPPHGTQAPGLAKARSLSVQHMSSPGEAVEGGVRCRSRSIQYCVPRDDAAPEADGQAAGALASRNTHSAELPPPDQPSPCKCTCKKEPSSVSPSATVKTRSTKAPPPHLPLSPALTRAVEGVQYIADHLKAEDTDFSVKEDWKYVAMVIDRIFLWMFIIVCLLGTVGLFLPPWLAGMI
# neuronal α4β2 nAChR, sequence (P17787 26-502): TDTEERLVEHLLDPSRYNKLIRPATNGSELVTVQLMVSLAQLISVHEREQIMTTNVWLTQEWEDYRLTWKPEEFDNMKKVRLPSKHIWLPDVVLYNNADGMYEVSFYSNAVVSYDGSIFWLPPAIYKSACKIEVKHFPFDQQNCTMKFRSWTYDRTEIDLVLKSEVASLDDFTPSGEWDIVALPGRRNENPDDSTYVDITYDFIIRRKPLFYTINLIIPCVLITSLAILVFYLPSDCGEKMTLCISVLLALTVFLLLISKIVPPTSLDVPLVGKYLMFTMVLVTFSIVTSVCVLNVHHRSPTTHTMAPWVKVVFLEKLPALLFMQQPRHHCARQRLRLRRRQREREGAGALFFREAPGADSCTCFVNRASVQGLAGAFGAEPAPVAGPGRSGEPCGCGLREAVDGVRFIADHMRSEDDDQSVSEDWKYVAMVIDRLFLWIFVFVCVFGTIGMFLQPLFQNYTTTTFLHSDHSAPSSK
# α7 nAChR, sequence (P36544 23-502): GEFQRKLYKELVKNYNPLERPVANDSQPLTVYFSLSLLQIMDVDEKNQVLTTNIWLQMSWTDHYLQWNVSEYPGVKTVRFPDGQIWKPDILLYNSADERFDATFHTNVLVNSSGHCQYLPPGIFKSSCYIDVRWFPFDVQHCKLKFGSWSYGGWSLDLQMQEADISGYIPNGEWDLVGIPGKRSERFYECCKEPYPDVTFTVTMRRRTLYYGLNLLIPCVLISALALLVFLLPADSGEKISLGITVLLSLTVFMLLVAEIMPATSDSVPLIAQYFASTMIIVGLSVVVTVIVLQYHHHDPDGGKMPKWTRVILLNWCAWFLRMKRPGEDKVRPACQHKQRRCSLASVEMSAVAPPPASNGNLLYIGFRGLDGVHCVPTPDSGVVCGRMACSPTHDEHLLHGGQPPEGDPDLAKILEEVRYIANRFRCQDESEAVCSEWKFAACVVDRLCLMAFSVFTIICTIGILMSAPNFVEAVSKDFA
Structure (SMILES),binding to muscle-type nAChRs [1],binding to the neuronal α4β2 nAChR [2],binding to the α7 receptor [3],"concentration at 2 h ([4]; brain, read-out: concentration in brain)","concentration at 2 h ([4]; plasma, read-out: concentration in plasma)","Albuminuria [5, 6]","Blood Glucose [5, 6]","Systolic BP [5, 6]","Albuminuria [5, 7]","Blood Glucose [5, 7]","Systolic BP [5, 7]"
CN(CC1CC[N+](C)(Cc2ccccc2)CC1)C(=O)c1cn(Cc2ccccc2Cl)nn1 (centres unmarked) [Compound 16],no detectable binding,no detectable binding,92%,150 nM,200 nM,,,,,,
NS(=O)(=O)c1ccc(Cn2ncc(C(=O)NCC3CCN(Cc4ccccc4)CC3)n2)cc1 [Compound 17],,,,,,35 ± 6 ng/ml/24 hr,441 ± 43 mg/dL,142 ± 13 mmHg,50 ± 13 ng/ml/24 hr,354 ± 51 mg/dL,150 ± 11 mmHg
